Earlier results as cited in EP4520317A1, “TRANSDERMAL THERAPEUTIC SYSTEM OF LUMATEPERONE” (Luye Pharma Switzerland AG, priority 2023, dated 2025).

Conditions: in vivo

oral bioavailability: about 4.4%
SMILES: CN1CCN2c3c(cccc31)[C@@H]1CN(CCCC(=O)c3ccc(F)cc3)CC[C@@H]12 [lumateperone, 1-(4-fluoro-phenyl)-4-((6bR, 10aS)-3-methyl-2,3,6b,9,10,10a-hexahydro-1H,7H-pyrido[3',4':4,5]pyrrolo[1,2,3-de]quinoxalin-8-yl)-butan-1-one]
